Test results: ChEMBL document CHEMBL1201862, “PubChem BioAssay data set” (2004)
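A five-concentration, 48-hour dose response in 96-well plates underlies each endpoint, interpolated linearly between surrounding concentrations. GI50: concentration for 50% inhibition of growth.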 Calls of active or inactive are those of the source. Cut-off read from the data, not from the text of the source: active = GI50 up to about 1.1 µM and inactive = higher. Where a SMILES comes first, the peptide text is derived from it.

How the values were obtained:
Experiment in all cases: NCI anticancer screen, dose series, 48 h
A549 = tested on: A549
COLO 205 = tested on: COLO 205
DU-145 = tested on: DU-145
HCC 2998 = tested on: HCC 2998
HOP-92 = tested on: HOP-92
IGROV-1 = tested on: IGROV-1
K562 = tested on: K562
KM12 = tested on: KM12
MDA-MB-231 = tested on: MDA-MB-231
MDA-N = tested on: MDA-N
MOLT-4 = tested on: MOLT-4
NCI-H23 = tested on: NCI-H23
SK-MEL-28 = tested on: SK-MEL-28
SK-MEL-5 = tested on: SK-MEL-5
SN12C = tested on: SN12C
SNB-19 = tested on: SNB-19
SNB-75 = tested on: SNB-75
T47D = tested on: T47D
U-251 = tested on: U-251
SR = tested on: SR

Row | Compound | GI50 (A549) | GI50 (COLO 205) | GI50 (DU-145) | GI50 (HCC 2998) | GI50 (HOP-92) | GI50 (IGROV-1) | GI50 (K562) | GI50 (KM12) | GI50 (MDA-MB-231) | GI50 (MDA-N) | GI50 (MOLT-4) | GI50 (NCI-H23) | GI50 (SK-MEL-28) | GI50 (SK-MEL-5) | GI50 (SN12C) | GI50 (SNB-19) | GI50 (SNB-75) | GI50 (T47D) | GI50 (U-251) | GI50 (SR)
1 | COc1cc(/C=C2\CCc3cc(OC)c(OC)cc3C2=O)cc(OC)c1 | 5.2 µM (inactive) | 3.28 µM (inactive) | 9.98 µM (inactive) | 5.3 µM (inactive) | 24.3 µM (inactive) | 7.35 µM (inactive) | 3.03 µM (inactive) | 4.88 µM (inactive) | 12.9 µM (inactive) | 1.45 µM (inactive) | 12.8 µM (inactive) | 10.9 µM (inactive) | 15.8 µM (inactive) | 3.87 µM (inactive) | 5 µM (inactive) | > 28.6 µM (inactive) | 21.3 µM (inactive) | 5.9 µM (inactive) | 6.28 µM (inactive) | –
2 | Cc1cc2nc3[nH]c4c(Cl)cc(Cl)cc4c3nc2cc1C | > 100 µM (inactive) | > 100 µM (inactive) | 86.3 µM (inactive) | – | > 100 µM (inactive) | > 100 µM (inactive) | > 100 µM (inactive) | > 100 µM (inactive) | > 100 µM (inactive) | > 100 µM (inactive) | 74 µM (inactive) | > 100 µM (inactive) | > 100 µM (inactive) | > 100 µM (inactive) | > 100 µM (inactive) | > 100 µM (inactive) | 9.12 µM (inactive) | > 100 µM (inactive) | > 100 µM (inactive) | 96.8 µM (inactive)
3 | Cc1nnc(N)nc1C/C=C/C(C)Sc1ccc(Cl)cc1 (stereo not given) | 7 µM (inactive) | 19.1 µM (inactive) | 11.9 µM (inactive) | 14.4 µM (inactive) | 11.4 µM (inactive) | 3.41 µM (inactive) | 9.73 µM (inactive) | 4.7 µM (inactive) | 20.1 µM (inactive) | 14.4 µM (inactive) | 3.7 µM (inactive) | 5.47 µM (inactive) | 12.3 µM (inactive) | 6.08 µM (inactive) | 11.1 µM (inactive) | 5.58 µM (inactive) | 6.01 µM (inactive) | 8.07 µM (inactive) | 8.93 µM (inactive) | –
4 | CCCCNC(=S)N/N=C/c1cccc(C)n1 | 32.4 µM (inactive) | 33.7 µM (inactive) | 83.2 µM (inactive) | – | 24.2 µM (inactive) | 58.3 µM (inactive) | 13.2 µM (inactive) | 31.3 µM (inactive) | 35.7 µM (inactive) | 42.8 µM (inactive) | 10.7 µM (inactive) | 59.3 µM (inactive) | 48.5 µM (inactive) | 43 µM (inactive) | 30.1 µM (inactive) | 39.3 µM (inactive) | 67.6 µM (inactive) | 26 µM (inactive) | 44.2 µM (inactive) | 19.5 µM (inactive)
5 | Cc1c2cccc-2c(OCCOC(=O)n2ccnc2)cc2c1[nH]c1ccccc12 | 3.42 µM (inactive) | – | 6.24 µM (inactive) | 2.82 µM (inactive) | 1.7 µM (inactive) | 1.77 µM (inactive) | 4.01 µM (inactive) | 2.14 µM (inactive) | – | 4.8 µM (inactive) | 4.12 µM (inactive) | 2.44 µM (inactive) | 2.02 µM (inactive) | 2.42 µM (inactive) | 2.58 µM (inactive) | 2.65 µM (inactive) | 1.04 µM (active) | 2.49 µM (inactive) | – | 3.31 µM (inactive)
6 | Cn1c(=O)c2c(nc3n(CC(O)CCl)c(=O)ccn23)n(C)c1=O (stereo not given) | 64 µM (inactive) | 36.8 µM (inactive) | 28.8 µM (inactive) | 58.7 µM (inactive) | 45.9 µM (inactive) | 20.8 µM (inactive) | 39.2 µM (inactive) | 19.9 µM (inactive) | 31.3 µM (inactive) | 35.2 µM (inactive) | 6.17 µM (inactive) | 42.7 µM (inactive) | 66.7 µM (inactive) | 62.5 µM (inactive) | 18.3 µM (inactive) | 60 µM (inactive) | 29.1 µM (inactive) | 35.7 µM (inactive) | 44 µM (inactive) | –
7 | CC(C)=CC1C(COC(=O)c2ccccc2Cl)C1(C)C (stereo not given) | 36.9 µM (inactive) | – | 32.8 µM (inactive) | – | 28.4 µM (inactive) | 23.5 µM (inactive) | 34 µM (inactive) | 30.4 µM (inactive) | 49.7 µM (inactive) | 29.6 µM (inactive) | 24.3 µM (inactive) | 31.8 µM (inactive) | > 100 µM (inactive) | 24 µM (inactive) | 32.6 µM (inactive) | > 100 µM (inactive) | – | 50.6 µM (inactive) | 30.1 µM (inactive) | 42.2 µM (inactive)
8 | NNc1nncc2[nH]cnc12 | > 100 µM (inactive) | > 100 µM (inactive) | > 100 µM (inactive) | – | – | > 100 µM (inactive) | > 100 µM (inactive) | > 100 µM (inactive) | > 100 µM (inactive) | > 100 µM (inactive) | > 100 µM (inactive) | > 100 µM (inactive) | > 100 µM (inactive) | > 100 µM (inactive) | > 100 µM (inactive) | > 100 µM (inactive) | > 100 µM (inactive) | > 100 µM (inactive) | > 100 µM (inactive) | > 100 µM (inactive)
9 | COC(=O)c1cc(O)c(O)c(O)c1-c1c(O)c(O)c(O)c(SC[C@H](NC(=O)OCc2ccccc2)C(=O)OCc2ccccc2)c1C(=O)OC | 17.9 µM (inactive) | 22.6 µM (inactive) | 39.2 µM (inactive) | 24.1 µM (inactive) | 26.2 µM (inactive) | 28.8 µM (inactive) | 19.6 µM (inactive) | 31.9 µM (inactive) | 16.7 µM (inactive) | 19.8 µM (inactive) | 17.6 µM (inactive) | 22 µM (inactive) | 30.1 µM (inactive) | – | 19.4 µM (inactive) | 30.8 µM (inactive) | 20.3 µM (inactive) | 32.4 µM (inactive) | 16.4 µM (inactive) | –
10 | C=C(C)[C@@]1(O)CCC[C@H]1NC(=O)OC(C)(C)C | > 100 µM (inactive) | > 100 µM (inactive) | > 100 µM (inactive) | > 100 µM (inactive) | > 100 µM (inactive) | > 100 µM (inactive) | – | > 100 µM (inactive) | > 100 µM (inactive) | > 100 µM (inactive) | – | > 100 µM (inactive) | > 100 µM (inactive) | > 100 µM (inactive) | > 100 µM (inactive) | > 100 µM (inactive) | > 100 µM (inactive) | > 100 µM (inactive) | > 100 µM (inactive) | –
11 | Cc1ccc(O)c(-c2cc(-c3ccccc3)nc(/N=C\c3ccccc3)n2)c1 | 23.1 µM (inactive) | – | > 100 µM (inactive) | – | 43.7 µM (inactive) | 16.6 µM (inactive) | 45.6 µM (inactive) | 17.5 µM (inactive) | 77.3 µM (inactive) | 94.2 µM (inactive) | 18.2 µM (inactive) | 24.4 µM (inactive) | > 100 µM (inactive) | 31.5 µM (inactive) | 42.9 µM (inactive) | 29.8 µM (inactive) | 15.3 µM (inactive) | 7.69 µM (inactive) | 20.9 µM (inactive) | 59.4 µM (inactive)
12 | O=C1NC(=S)NC(=O)C1C(c1ccc(O)cc1)C1C(=O)NC(=S)NC1=O.c1ccncc1 | > 100 µM (inactive) | > 100 µM (inactive) | > 100 µM (inactive) | – | > 100 µM (inactive) | > 100 µM (inactive) | > 100 µM (inactive) | > 100 µM (inactive) | > 100 µM (inactive) | > 100 µM (inactive) | > 100 µM (inactive) | > 100 µM (inactive) | > 100 µM (inactive) | > 100 µM (inactive) | > 100 µM (inactive) | > 100 µM (inactive) | – | > 100 µM (inactive) | > 100 µM (inactive) | –
13 | O=C1c2ccccc2-c2c1c1ccccc1c(=O)n2Cc1ccccc1 | > 100 µM (inactive) | > 100 µM (inactive) | 81.5 µM (inactive) | – | 63.1 µM (inactive) | 64.4 µM (inactive) | > 10 µM (inactive) | > 100 µM (inactive) | 50.1 µM (inactive) | > 100 µM (inactive) | > 100 µM (inactive) | 68.2 µM (inactive) | > 100 µM (inactive) | 73.6 µM (inactive) | > 100 µM (inactive) | – | 56.4 µM (inactive) | > 100 µM (inactive) | 93.8 µM (inactive) | > 100 µM (inactive)
14 | C/C(CC(O)(/C=N/O)c1ccccc1)=N/O (stereo not given) | > 100 µM (inactive) | – | – | > 100 µM (inactive) | – | > 100 µM (inactive) | > 100 µM (inactive) | > 100 µM (inactive) | > 100 µM (inactive) | > 100 µM (inactive) | > 100 µM (inactive) | > 100 µM (inactive) | > 100 µM (inactive) | > 100 µM (inactive) | > 100 µM (inactive) | > 100 µM (inactive) | – | > 100 µM (inactive) | > 100 µM (inactive) | > 100 µM (inactive)
15 | CC(=O)NC(CS)C(=O)NC(CO)C(=O)NC(CO)C(=O)NC(Cc1c[nH]c2ccccc12)C(=O)N1CCCC1C(=O)NC(CO)C(=O)NC(Cc1c[nH]c2ccccc12)C(=O)NC(Cc1c[nH]cn1)C(=O)NC(CO)C(=O)NC(Cc1c[nH]c2ccccc12)C(=O)NCC(=O)NCC(=O)NC(CC(=O)O)C(=O)NC(CCC(N)=O)C(=O)NC(CCCCN)C(=O)NC(Cc1ccccc1)C(=O)NC(CCCNC(=N)N)C(=O)NC(CCCCN)C(N)=O (stereo not given) (Ac-CSSWPSWHSWGGDQKFRK-NH2; configuration not given here) | > 25 µM (inactive) | > 25 µM (inactive) | > 25 µM (inactive) | – | > 25 µM (inactive) | > 25 µM (inactive) | > 25 µM (inactive) | > 25 µM (inactive) | > 25 µM (inactive) | > 25 µM (inactive) | > 25 µM (inactive) | > 25 µM (inactive) | > 25 µM (inactive) | > 25 µM (inactive) | > 25 µM (inactive) | > 25 µM (inactive) | > 25 µM (inactive) | > 25 µM (inactive) | > 25 µM (inactive) | > 25 µM (inactive)
